Reference: US10092575B2, “Substituted thiophene- and furan-fused azolopyrimidine-5-(6H)-one compounds” (DART NEUROSCIENCE (CAYMAN) LTD., priority 2012, dated 2018)

These molecules were tested against human PDE1b enzyme (Homo sapiens (Human), UniProt Q01064) (assay: PDE1b inhibitory assay (IMAP TR-FRET)). Conditions: not given.
COc1ccc(Cn2c(=O)n3ncnc3c3cc(CN4CCN(c5ccc(F)cc5)CC4)sc32)cc1 [Example 188, 8-((4-(4-Fluorophenyl)piperazin-1-yl)methyl)-6-(4-methoxybenzyl)thieno[3,2-e][1,2,4]triazolo[1,5-c]pyrimidin-5(6H)-one] was tested, and the EC50 was 100 to 1000 nM.
O=c1n(Cc2ccc(C(F)(F)F)cc2)c2sc3c(c2c2ncnn12)CCOC3 [Example 89, 6-(4-(Trifluoromethyl)benzyl)-6,8,10,11-tetrahydro-5H-pyrano[4′,3′:4,5]thieno[3,2-e][1,2,4]triazolo[1,5-c]pyrimidin-5-one] gave an EC50 of 1000 to 10000 nM.
In the case of O=c1n(Cc2ccc(Cl)c(Cl)c2)c2sc3c(c2c2ncnn12)CCOC3 [Example 91, 6-(3,4-Dichlorobenzyl)-6,8,10,11-tetrahydro-5H-pyrano[4′,3′:4,5]thieno[3,2-e][1,2,4]triazolo[1,5-c]pyrimidin-5-one], the EC50 is reported as 100 to 1000 nM.
In the case of CCN(Cc1cc2c(s1)n(Cc1ccc(OC)cc1)c(=O)n1ncnc21)C1CCOC(C)(C)C1 (stereo not drawn) [Example 196], the EC50 is reported as 1000 to 10000 nM.
Work on COc1ccc(Cn2c(=O)n3ncnc3c3c4c(sc32)CCNC4)cc1 [Example 184, 6-(4-Methoxybenzyl)-8,9,10,11-tetrahydropyrido[3′,4′:4,5]thieno[3,2-e][1,2,4]triazolo[1,5-c]pyrimidin-5(6H)-one] yielded an EC50 of 100 to 1000 nM.
In the case of O=c1n(Cc2ccc(Cl)c(F)c2)c2sc3c(c2c2ncnn12)CCOC3 [Example 93, 6-(4-Chloro-3-fluorobenzyl)-6,8,10,11-tetrahydro-5H-pyrano[4′,3′:4,5]thieno[3,2-e][1,2,4]triazolo[1,5-c]pyrimidin-5-one], the EC50 is reported as 100 to 1000 nM.
O=c1n(Cc2ccc(-c3ccccc3)cc2)c2sc(Cc3ccccc3)cc2c2ncnn12 [Example 18, 6-([1,1′-Biphenyl]-4-ylmethyl)-8-benzylthieno[3,2-e][1,2,4]triazolo[1,5-c]pyrimidin-5(6H)-one] showed an EC50 of 1000 to 10000 nM.
COc1ccc(Cn2c(=O)n3ncnc3c3cc(CN4CCOCC4)sc32)c(F)c1 [Example 208, 6-(2-Fluoro-4-methoxybenzyl)-8-(morpholinomethyl)thieno[3,2-e][1,2,4]triazolo[1,5-c]pyrimidin-5(6H)-one] showed an EC50 of 100 to 1000 nM.
O=c1n(Cc2ccc(Cl)cc2)c2sc3c(c2c2ncnn12)CCNC3 [Example 99, 6-(4-Chlorobenzyl)-8,9,10,11-tetrahydropyrido[4′,3′:4,5]thieno[3,2-e][1,2,4]triazolo[1,5-c]pyrimidin-5(6H)-one] gave an EC50 of 1000 to 10000 nM.
COc1ccc(Cn2c(=O)n3ncnc3c3c4c(sc32)CN(CC(C)C)CC4(F)F)cc1 [Example 218, 11,11-Difluoro-9-isobutyl-6-(4-methoxybenzyl)-8,9,10,11-tetrahydropyrido[4′,3′:4,5]thieno[3,2-e][1,2,4]triazolo[1,5-c]pyrimidin-5 (6H)-one] was tested, and the EC50 was 100 to 1000 nM.
In the case of CC(C)CCc1cc2c(s1)n(Cc1ccccc1)c(=O)n1ncnc21 [Example 25, 6-Benzyl-8-isopentylthieno[3,2-e][1,2,4]triazolo[1,5-c]pyrimidin-5(6H)-one], the EC50 is reported as 100 to 1000 nM.
COc1ccc(Cn2c(=O)n3ncnc3c3c(C)c(CN4CCNCC4)sc32)cc1 [Example 49, 6-(4-Methoxybenzyl)-9-methyl-8-(piperazin-1-ylmethyl)thieno[3,2-e][1,2,4]triazolo[1,5-c]pyrimidin-5(6H)-one] gave an EC50 of 100 to 1000 nM.
COc1ccc(Cn2c(=O)n3ncnc3c3c(C)c(Br)sc32)cc1 [Example 76, 8-Bromo-6-(4-methoxybenzyl)-9-methylthieno[3,2-e][1,2,4]triazolo[1,5-c]pyrimidin-5(6H)-one] was tested, and the EC50 was 100 to 1000 nM.
Work on COc1ccc(Cn2c(=O)n3ncnc3c3c4c(sc32)CN(CC2CNCCO2)CC4)cc1 (stereo not drawn) [Example 180, 6-(4-Methoxybenzyl)-9-(morpholin-2-ylmethyl)-8,9,10,11-tetrahydropyrido[4′,3′:4,5]thieno[3,2-e][1,2,4]triazolo[1,5-c]pyrimidin-5(6H)-one] yielded an EC50 of 100 to 1000 nM.
Work on Cc1oc2c(c1C)c1ncnn1c(=O)n2Cc1ccc(Cl)cc1 [Example 79, 6-(4-Chlorobenzyl)-8,9-dimethylfuro[3,2-e][1,2,4]triazolo[1,5-c]pyrimidin-5(6H)-one] yielded an EC50 of 100 to 1000 nM.
COc1ccc(Cn2c(=O)n3ncnc3c3c4c(sc32)CN(C2CS(=O)(=O)C2)CC4)cc1 [Example 124, 9-(1,1-Dioxidothietan-3-yl)-6-(4-methoxybenzyl)-8,9,10,11-tetrahydropyrido[4′,3′:4,5]thieno[3,2-e][1,2,4]triazolo[1,5-c]pyrimidin-5 (6H)-one] showed an EC50 of 100 to 1000 nM.
COc1ccc(Cn2c(=O)n3ncnc3c3cc(CN(C)CC4(C)COC4)sc32)c(F)c1F [Example 210, 6-(2,3-Difluoro-4-methoxybenzyl)-8-((methyl((3-methyloxetan-3-yl)methyl)amino)methyl)thieno[3,2-e][1,2,4]triazolo[1,5-c]pyrimidin-5(6H)-one] was tested, and the EC50 was 100 to 1000 nM.

Same assay, conditions: negative log of half-maximal molar inhibitory concentration; 200 nM FAM-cAMP; reported as ranges
COc1ccc(Cn2c(=O)n3ncnc3c3c4c(sc32)CN(Cc2ncccn2)CCC4)cc1 [Example 145, 6-(4-Methoxybenzyl)-9-(pyrimidin-2-ylmethyl)-6,8,9,10,11,12-hexahydro-5H-[1,2,4]triazolo[1″,5″:1′,6]pyrimido[5′,4′:4,5]thieno[2,3-c]azepin-5-one] was tested, and the “PDE1b (pEC50)” value was over 7.
COc1ccc(Cn2c(=O)n3ncnc3c3c4c(sc32)CN(CC2CC2)CC4)cc1 [Example 110, 9-(Cyclopropylmethyl)-6-(4-methoxybenzyl)-8,9,10,11-tetrahydropyrido[4′,3′:4,5]thieno[3,2-e][1,2,4]triazolo[1,5-c]pyrimidin-5 (6H)-one] was tested, and the “PDE1b (pEC50)” value was over 7.
With COc1ccc(Cn2c(=O)n3ncnc3c3c4c(sc32)CN(Cc2ncccn2)CC4)cc1 [Example 116, 6-(4-Methoxybenzyl)-9-(pyrimidin-2-ylmethyl)-8,9,10,11-tetrahydropyrido[4′,3′:4,5]thieno[3,2-e][1,2,4]triazolo[1,5-c]pyrimidin-5 (6H)-one] the “PDE1b (pEC50)” value was over 7.
In the case of COc1ccc(Cn2c(=O)n3ncnc3c3cc(CN4CC5CC4CO5)sc32)cc1 (stereo not drawn) [Example 37, 8-(2-Oxa-5-azabicyclo[2.2.1]heptan-5-ylmethyl)-6-(4-methoxybenzyl)thieno[3,2-e][1,2,4]triazolo[1,5-c]pyrimidin-5(6H)-one], the “PDE1b (pEC50)” value is reported as over 7.
With COc1ccc(Cn2c(=O)n3ncnc3c3c(C)c(CN(CCO)Cc4ccccc4)sc32)cc1 [Example 48, 8-((Benzyl(2-hydroxyethyl)amino)methyl)-6-(4-methoxybenzyl)-9-methylthieno[3,2-e][1,2,4]triazolo[1,5-c]pyrimidin-5(6H)-one] the “PDE1b (pEC50)” value was over 7.
In the case of COC[C@@H]1CCCN1Cc1sc2c(c1C)c1ncnn1c(=O)n2Cc1ccc(OC)cc1 [Example 58, (S)-6-(4-Methoxybenzyl)-8-((2-(methoxymethyl)pyrrolidin-1-yl)methyl)-9-methylthieno[3,2-e][1,2,4]triazolo[1,5-c]pyrimidin-5(6H)-one], the “PDE1b (pEC50)” value is reported as over 7.
With O=C(c1cnccn1)N1CCc2c(sc3c2c2ncnn2c(=O)n3Cc2ccc(Cl)cc2)C1 [Example 157, 6-(4-Chlorobenzyl)-9-(pyrazine-2-carbonyl)-8,9,10,11-tetrahydropyrido[4′,3′:4,5]thieno[3,2-e][1,2,4]triazolo[1,5-c]pyrimidin-5(6H)-one] the “PDE1b (pEC50)” value was over 7.
COc1ccc(Cn2c(=O)n3ncnc3c3c4c(sc32)CN(C(=O)C2CCOC2)CC4(F)F)cc1 (stereo not drawn) [Example 166, 11,11-Difluoro-6-(4-methoxybenzyl)-9-(tetrahydrofuran-3-carbonyl)-8,9,10,11-tetrahydropyrido[4′,3′:4,5]thieno[3,2-e][1,2,4]triazolo[1,5-c]pyrimidin-5 (6H)-one] was tested, and the “PDE1b (pEC50)” value was over 7.
COc1ccc(Cn2c(=O)n3ncnc3c3cc(CN4CCS(=O)(=O)CC4)sc32)cc1 [Example 206, 8-((1,1-Dioxidothiomorpholino)methyl)-6-(4-methoxybenzyl)thieno[3,2-e][1,2,4]triazolo[1,5-c]pyrimidin-5(6H)-one] was tested, and the “PDE1b (pEC50)” value was over 7.
For COc1ccc(Cn2c(=O)n3ncnc3c3c(CN4CCC(Oc5ccccc5)C4)csc32)cc1 (stereo not drawn) [Example 189, 6-(4-Methoxybenzyl)-9-((3-phenoxypyrrolidin-1-yl)methyl)thieno[3,2-e][1,2,4]triazolo[1,5-c]pyrimidin-5(6H)-one], the “PDE1b (pEC50)” value was over 7.
In the case of COc1ccc(Cn2c(=O)n3ncnc3c3cc(CN4CCOCC4)sc32)cc1 [Example 31, 6-(4-Methoxybenzyl)-8-(morpholinomethyl)thieno[3,2-e][1,2,4]triazolo[1,5-c]pyrimidin-5(6H)-one], the “PDE1b (pEC50)” value is reported as over 7.
For Cc1cc2c(s1)n(Cc1ccc(-c3ccccc3)cc1)c(=O)n1ncnc21 [Example 14, 6-([1,1′-Biphenyl]-4-ylmethyl)-8-methylthieno[3,2-e][1,2,4]triazolo[1,5-c]pyrimidin-5(6H)-one], the “PDE1b (pEC50)” value was under 5.
With COc1ccc(Cn2c(=O)n3ncnc3c3c(C)c(CN(C)CC4CCCO4)sc32)cc1 (stereo not drawn) [Example 54, 6-(4-Methoxybenzyl)-9-methyl-8-((methyl((tetrahydrofuran-2-yl)methyl)amino)methyl)thieno[3,2-e][1,2,4]triazolo[1,5-c]pyrimidin-5(6H)-one] the “PDE1b (pEC50)” value was over 7.
In the case of COc1ccc(Cn2c(=O)n3ncnc3c3c4c(sc32)CN(Cc2ccccn2)CCC4)cc1 [Example 146, 6-(4-Methoxybenzyl)-9-(pyridin-2-ylmethyl)-6,8,9,10,11,12-hexahydro-5H-[1,2,4]triazolo[1″,5″:1′,6′]pyrimido[5′,4′:4,5]thieno[2,3-c]azepin-5-one], the “PDE1b (pEC50)” value is reported as over 7.
COc1ccc(Cn2c(=O)n3ncnc3c3c4c(sc32)CN(CC2CCCOC2)CC4)c(F)c1 (stereo not drawn) [Example 142, 6-(2-Fluoro-4-methoxybenzyl)-9-((tetrahydro-2H-pyran-3-yl)methyl)-8,9,10,11-tetrahydropyrido[4′,3′:4,5]thieno[3,2-e][1,2,4]triazolo[1,5-c]pyrimidin-5(6H)-one] was tested, and the “PDE1b (pEC50)” value was over 7.
COc1ccc(Cn2c(=O)n3ncnc3c3c4c(sc32)CN(Cc2ccc(F)cc2)CC4)cc1 [Example 127, 9-(4-Fluorobenzyl)-6-(4-methoxybenzyl)-8,9,10,11-tetrahydropyrido[4′,3′:4,5]thieno[3,2-e][1,2,4]triazolo[1,5-c]pyrimidin-5(6H)-one] was tested, and the “PDE1b (pEC50)” value was over 7.
